Read-outs that look alike come from different tables or passages of the source.
Tests used:
[1] = test system: rat striatal synaptosomes; experiment: Depolarization-evoked glutamate release from striatal synaptosomes; format: cell-based; details: for Evoked glutamate release, expressed as the difference in % of the control value: WIN55,212-2 0.1 μM, n = 6
CB1R [2] = test system: CB1R; parameters: method as in PMID 16365309, PMID 1331766; details: cited from earlier work
CB1R [3] = test system: CB1R; parameters: method as in PMID 16365309, PMID 1331766; details: cited from earlier work; remark: listed apart in the source
CB1R [4] = target: CB1R (Homo sapiens, UniProt P21554); details: CP55940 200 nM; cells transfected with CB1R
Sequence of CB1R (Homo sapiens, UniProt P21554) (P21554 whole entry): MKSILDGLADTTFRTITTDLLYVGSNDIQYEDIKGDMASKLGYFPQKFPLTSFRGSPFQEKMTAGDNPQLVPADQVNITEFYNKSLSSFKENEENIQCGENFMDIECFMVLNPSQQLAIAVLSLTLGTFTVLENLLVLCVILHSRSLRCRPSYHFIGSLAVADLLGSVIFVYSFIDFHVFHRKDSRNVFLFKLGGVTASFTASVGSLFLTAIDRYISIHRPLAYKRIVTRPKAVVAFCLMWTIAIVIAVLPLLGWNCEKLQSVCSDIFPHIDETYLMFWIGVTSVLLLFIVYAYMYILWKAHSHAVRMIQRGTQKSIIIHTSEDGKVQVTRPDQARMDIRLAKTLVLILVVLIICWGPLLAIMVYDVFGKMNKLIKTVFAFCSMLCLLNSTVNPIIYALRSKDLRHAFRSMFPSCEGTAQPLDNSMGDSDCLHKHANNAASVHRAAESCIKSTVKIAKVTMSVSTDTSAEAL

A2AR-CB1R heterotetramer = A2AR-CB1R heterotetramer (Homo sapiens, UniProt P21554+P29274)
Sequence of A2AR-CB1R heterotetramer (P29274 whole entry): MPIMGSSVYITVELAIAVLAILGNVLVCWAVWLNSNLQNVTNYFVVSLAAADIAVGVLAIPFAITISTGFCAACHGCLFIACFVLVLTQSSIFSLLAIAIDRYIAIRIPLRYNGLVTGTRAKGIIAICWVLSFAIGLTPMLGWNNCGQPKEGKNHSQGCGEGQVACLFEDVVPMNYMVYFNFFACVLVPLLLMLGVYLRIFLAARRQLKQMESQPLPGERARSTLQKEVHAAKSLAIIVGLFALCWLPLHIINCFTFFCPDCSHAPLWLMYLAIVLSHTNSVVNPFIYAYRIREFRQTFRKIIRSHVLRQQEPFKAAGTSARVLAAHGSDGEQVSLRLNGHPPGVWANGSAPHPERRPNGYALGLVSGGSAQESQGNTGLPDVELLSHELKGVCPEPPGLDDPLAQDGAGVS
Sequence of A2AR-CB1R heterotetramer (P21554 whole entry): as the sequence (P21554 whole entry) above

A2AR-CB1R heteromer = A2AR-CB1R heteromer (Homo sapiens, UniProt P21554+P29274)
Sequence of A2AR-CB1R heteromer (P29274 whole entry): as the sequence (P29274 whole entry) above
Sequence of A2AR-CB1R heteromer (P21554 whole entry): as the sequence (P21554 whole entry) above

[5] = PTX 10 ng/ml overnight or CTX 100 ng/ml 2 h

Compound: Cc1c(C(=O)c2cccc3ccccc23)c2cccc3c2n1[C@H](CN1CCOCC1)CO3 [WIN55,212-2]
- Evoked glutamate release, expressed as the difference in % of the control value ([1]; synaptosomes incubated 4 h at 4 °C with PTX (2 μg/ml)): 114.6% ± 6.8
- Evoked glutamate release, expressed as the difference in % of the control value ([1]; toxin-naïve synaptosomes): 82.9% ± 3.6
- Further inhibition of evoked glutamate release in the presence of SCH58261 (10 μM) ([1]; WIN55212-2 0.3 μM): could not be further inhibited
- EC50 ([1]; WIN55,212-2 alone, 30 mM KCl, read-out: EC50 of inhibition of evoked glutamate release): 5.5 nM
- Maximal effect on evoked glutamate release ([1]; at 0.03 μM): 77.0 ± 3.0 % of DMSO control
- Potency relative to CP55940 at inhibiting forskolin-induced cAMP production (CB1R [2]): less potent
- Potency relative to CP55940 at eliciting Gq-dependent intracellular calcium increase (CB1R [3]): more

Compound: CCCCCCC(C)(C)c1ccc([C@@H]2C[C@H](O)CC[C@H]2CCCO)c(O)c1 [CP55940]
- Effect on cAMP formation induced by forskolin (500 nM) (CB1R [4]): decreased cAMP formation
- Effect on CGS21680-mediated increase in cAMP (A2AR-CB1R heterotetramer): counteracted CGS21680-mediated increase in cAMP
- Effect on the concentration-response curve of NECA (Gs activation) (A2AR-CB1R heteromer; CP55940 10 μM, Gαs-YFP): did not produce a significant shift
- Concentration-response curve of ligand-induced changes in BRET: G protein coupling (A2AR-CB1R heteromer; cells co-transfected with either Gαs-, Gαi1- or Gαq-YFP): could only be obtained when the cells were transfected with Gαi-YFP

Compound: cholera toxin [CTX]
- Effect on CGS21680-induced cAMP increase (A2AR-CB1R heterotetramer): blockade
- Effect on CP55940-induced cAMP decrease (A2AR-CB1R heterotetramer): also blocked

Compound: Nc1nc2c(cnn2CCc2ccccc2)c2nc(-c3ccco3)nn12 [SCH58261]
- Effect of co-application on the effect of WIN55,212-2 on glutamate release [1]: did not significantly modify
- Effect on the concentration-response inhibitory curve of WIN55,212-2 [1]: shifted to the right
- Effect on the inhibition of glutamate release by 0.01 and 0.03 μM of WIN55,212-2 [1]: fully prevented
- Effect on evoked glutamate release ([1]; SCH58261 10 μM): significantly inhibited the evoked glutamate release

Compound: CCNC(=O)[C@H]1O[C@@H](n2cnc3c(N)nc(NCCc4ccc(CCC(=O)O)cc4)nc32)[C@H](O)[C@@H]1O [CGS21680]
- Effect on the inhibition of glutamate release by 0.01 and 0.03 μM of WIN55,212-2 ([1]; CGS21680 0.03 μM or SCH58261 0.1 μM): fully prevented
- Effect of co-application on the effect of WIN55,212-2 on glutamate release ([1]; CGS21680 0.03 μM plus SCH58261 0.1 μM): did not significantly modify

Compound: pertussis toxin [PTX]
- Effect on WIN55,212-2 (0.1 μM) inhibition of glutamate release ([1]; PTX 2 μg/ml, 4 h at 4 °C): fully prevented this inhibition
- Effect on CGS21680-induced cAMP increase (A2AR-CB1R heterotetramer; [5]): also blocked
- Effect on CP55940-induced cAMP decrease (A2AR-CB1R heterotetramer; [5]): blockade
